According to patent US8293266B2, “Paromomycin-supplemented feed stuff for turkey and use thereof for prophylaxis of histomoniasis, reduction of the horizontal spreading of histomoniasis, and for improved weight gain and feed conversion” (Huvepharma AD, priority 2007, dated 2012):
Entries after “also recorded” stand apart in the source; their conditions may differ.

Tests used:
[1] = system: histomoniasis; conditions: use through the whole growth cycle; cited from earlier work
[2] = system: histomoniasis; conditions: cited from earlier work
[3] = system: histomoniasis; conditions: 200 and 400 ppm in broilers; cited from earlier work
[4] = system: Histomonas meleagridis strain HNA.CO. A.L1; experiment: Example 2: intracloacal Histomonas meleagridis challenge, seeder and contact birds, mortality and lesions; type: in vivo, turkey; conditions: lowest dose (250 ppm paromomycin sulphate), seeder birds mortality
[5] = system: Histomonas meleagridis strain HNA.CO.A.L1; experiment: Example 1: turkeys inoculated intracloacally with Histomonas meleagridis, mortality and lesions; type: in vivo, turkey; conditions: low dose (500 ppm), mortality

## N#CC(c1ccc(Cl)cc1)c1c(Cl)cc(-n2ncc(=O)[nH]c2=O)cc1Cl (stereo not drawn) [diclasuril]
[1]
  effect with respect to histomoniasis: no effect

## CC[C@@]1([C@@H]2O[C@@H]([C@H]3O[C@@](O)(CO)[C@H](C)C[C@@H]3C)C[C@@H]2C)CC[C@H]([C@]2(C)CC[C@]3(C[C@H](O)[C@@H](C)[C@@H]([C@@H](C)[C@@H](OC)[C@H](C)C(=O)O)O3)O2)O1 [monensin]
[1]
  effect with respect to histomoniasis: no effect

## NC[C@@H]1O[C@H](O[C@H]2[C@@H](O)[C@H](O[C@@H]3[C@@H](O)[C@H](N)C[C@H](N)[C@H]3O[C@H]3O[C@H](CO)[C@@H](O)[C@H](O)[C@H]3N)O[C@@H]2CO)[C@H](N)[C@@H](O)[C@@H]1O [paromomycin]
[2]; 1000-2000 ppm in feed (dosage exceeding 1000 ppm)
  side effects due to the use of paromomycin: certain toxicity effects; also recorded: lesions and hypertrophy of the liver
[2]; fed continuously at 1000-2000 ppm in feed
  mortality of infected birds: reduced the mortality of infected birds
[3]
  effect on mortality and lesion scoring: no effect on both mortality and lesion scoring
  use in-vivo as chemotherapeutic agent in broiler chickens: ineffective
[4]
  protection to infection: significant protection
[5]
  protection compared to the infected untreated group: significant protection

## CC[C@@H](C(=O)[C@@H](C)[C@@H](O)[C@H](C)[C@@H]1O[C@@H]([C@@H](CC)C(=O)O)CC[C@@H]1C)[C@H]1O[C@]2(C=C[C@@H](O)[C@]3(CC[C@@](C)([C@H]4CC[C@](O)(CC)[C@H](C)O4)O3)O2)[C@H](C)C[C@@H]1C [salinomycin]
[1]
  effect with respect to histomoniasis: no effect
